Like-named read-outs stand apart in the source and are kept apart here. Marks after values point to notes of the source that are not given here. Numbered stars: 1 amine (or outer) side, 2 acyl side, 3 side chain; on linkers, the order of the positions; unused ones are H or OH. Bridge positions count the residues as written; N and C are the ends. Square brackets hold non-standard residues; d marks the D form. Peptide text beside a SMILES is read from it. * marks the point of attachment. C18 diacid = O=C(O)CCCCCCCCCCCCCCCCC(=O)*; γGlu = O=C(O)[C@H](CCC(=O)[*:2])N[*:1]; Stearoyl = CCCCCCCCCCCCCCCCCC(=O)*; Palmitoyl = CCCCCCCCCCCCCCCC(=O)*; Dab = NCC[C@H](N)C(=O)O; Dap = NC[C@H](N)C(=O)O; AEEA = NCCOCCOCC(=O)O; GABA = NCCCC(=O)O
Legend:
Sprague Dawley rats = experiment: Clinically observable adverse effects of cationic alkyl moieties after subcutaneous bolus in rats (Table 1); type: in vivo, rat; details: tested at 3.0, 5.0 or 10 μmol/kg; for Ataxia** in n = 3: ataxia is bolus dose limiting toxicity; for Swelling and/or Discoloration in n = 3: dose at which sign was seen
Procedure: (§1) Drug administration and observation: Each rat received a subcutaneous injection of a cationic alkyl modifier (SEQ ID NO: 1-22; listed in Table 1 below) in a buffer of sterile water adjusted to a pH between 4.5-5, with an initial bolus dose of 5.0 μmol/kg and an injection volume of 1.0 mL/kg. The bolus dose level was adjusted based on observations, and animals were monitored closely for lethargy, ataxia, swelling, or discoloration during the first 4 hours post-injection and hourly thereafter. As used herein, “ataxia” means a clinical sign observed as poor muscle control that causes clumsy voluntary movements. It may cause difficulty with mobility, coordination, and eye movements. As used herein, “lethargy” means a clinical sign observed as inability or unwillingness to resume normal activity characterized by exploring and alertness. Lethargic rats are easily observed by displaying little to no activity and/or unwillingness to explore around, half closed eyes, and hunched posture. As used herein, “swelling” means a clinical sign observed as the enlargement or engorgement of body parts with blood or fluid and is associated with visible redness (discoloration). If no swelling occurred, dose level was increased to 10 μmol/kg; if swelling was present, bolus dose level was decreased to 3.0 μmol/kg. A wash-out period of 1 week was allowed between bolus doses, and animals were humanely euthanized through CO2 asphyxiation after final observation.

[1] = as above; type: in vivo, rat; details: male, Sprague-Dawley, rat, in vivo, sc, tested at 3.0, 5.0 or 10 μmol/kg, lethargy is considered maximum tolerated bolus dose, read-out: Lethargy* in n = 3
Procedure: as §1

cGMP = experiment: Plasma cGMP after SC bolus of natriuretic peptides in CD-1 mice (pharmacodynamics, Table 3); type: in vivo; details: SC bolus 1.0 mg/kg (≤0.45 μmol/kg), baseline 10 +/−8 pmol/ml, n = 3-5
Procedure: (§2) The test articles were formulated or dissolved in sterile water for injection on the same day of administration. […] Blood samples were collected via retro-orbital bleed at 2- and 6-hours post-injection, with two bleedings per animal at two different timepoints. The samples were collected in K2EDTA tubes, processed by centrifugation (2000×g; 15 m 4 eC within 30 minutes after collection), and the resulting plasma samples were stored at −80° C. Biochemical analysis: The plasma concentration of the respective natriuretic peptide was analyzed using commercially available ELISA kits from Phoenix Pharmaceuticals (Burlingame, CA): ANP ELISA (cat #EKE-005-06), BNP ELISA (cat #EKE-011-03), and CNP ELISA (cat #EKE-012-03). […] Plasma cGMP was analyzed using a commercially available kit from Abcam (ab133052, Waltham, MA).

[2] = Plasma concentration of respective natriuretic peptide by ELISA after SC bolus in CD-1 mice (pharmacokinetics, Table 3); details: male, CD-1, mouse, in vivo
Procedure: as §2

[3] = mice, SC bolus 1.0 mg/kg (≤0.45 μmol/kg), 2 hr, ELISA, n = 3-5, read-out: Plasma concentration of respective Natriuretic Peptide, ANP, BNP, or CNP, 2 hr
[4] = mice, SC bolus 1.0 mg/kg (≤0.45 μmol/kg), 6 hr, ELISA, n = 3-5, read-out: Plasma concentration of respective Natriuretic Peptide, ANP, BNP, or CNP, 6 hr

With `CCCCCCCCCCCCCCCC(=O)NCCOCCOCC(=O)NCCOCCOCC(=O)NCCOCCOCC(=O)N[C@H](CCCCN)C(=O)N[C@@H](CCCCN)C(=O)O` [SEQ ID NO: 1, CH3(CH2)14(C═O)-Aeea-Aeea-Aeea-kK] the “Ataxia** in n = 3” value (Sprague Dawley rats) was ≥3 µmol/kg, the “Swelling and/or Discoloration in n = 3” value (Sprague Dawley rats) was ≥3 µmol/kg and the MTD [1] was ≥ 3 µmol/kg.

With `CCCCCCCCCCCCCCCC(=O)NCCCC(=O)NCCCC(=O)NCCCC(=O)N[C@@H](CCN)C(=O)N[C@@H](CCN)C(=O)O` [SEQ ID NO: 12, CH3(CH2)14(C═O)-γAbu-γAbu-γAbu-Dab-Dab] ({Palmitoyl-GABA-GABA-GABA}-[Dab]-[Dab]-OH; C-terminus assumed) the “Ataxia** in n = 3” value (Sprague Dawley rats) was >10 µmol/kg, the “Swelling and/or Discoloration in n = 3” value (Sprague Dawley rats) was >10 µmol/kg and the MTD [1] was > 10 µmol/kg.

With `CCCCCCCCCCCCCCCCCC(=O)N[C@@H](CCCCN)C(=O)N[C@@H](CCCCN)C(=O)N[C@@H](CCCCN)C(=O)N[C@@H](CCCCN)C(=O)NCC(=O)NCC(=O)NCC(=O)O` [SEQ ID NO: 2, CH3(CH2)16(C═O)-KKKKGGG] (Stearoyl-KKKKGGG-OH; C-terminus assumed) the “Swelling and/or Discoloration in n = 3” value (Sprague Dawley rats) was ≥3 µmol/kg and the MTD [1] was ≥ 3 µmol/kg.

With `NCC[C@H](NC(=O)[C@H](CCN)NC(=O)COCCOCCNC(=O)COCCOCCNC(=O)CCCCCCCCCCCCCCCCC(=O)O)C(=O)O` [SEQ ID NO: 21, (HOOC)(CH2)16(C═O)-Aeea-Aeea-Dab-Dab] ({C18 diacid-AEEA-AEEA}-[Dab]-[Dab]-OH; C-terminus assumed) the “Ataxia** in n = 3” value (Sprague Dawley rats) was >10 µmol/kg, the “Swelling and/or Discoloration in n = 3” value (Sprague Dawley rats) was >10 µmol/kg and the MTD [1] was > 10 µmol/kg.

In the case of `CCCCCCCCCCCCCCCC(=O)N[C@@H](CCC(=O)NCCOCCOCC(=O)NCCOCCOCC(=O)N[C@@H](CCN)C(=O)N[C@@H](CCN)C(=O)O)C(=O)O` [SEQ ID NO: 15, CH3(CH2)14(C═O)-γE-Aeea-Aeea-Dab-Dab] ({Palmitoyl-γGlu-AEEA-AEEA}-[Dab]-[Dab]-OH; C-terminus assumed), the “Ataxia** in n = 3” value (Sprague Dawley rats) is reported as >10 µmol/kg, the “Swelling and/or Discoloration in n = 3” value (Sprague Dawley rats) is reported as >10 µmol/kg and the MTD [1] is reported as > 10 µmol/kg.

For `CCCCCCCCCCCCCCCC(=O)N[C@@H](CCC(=O)O)C(=O)NCCOCCOCC(=O)NCCOCCOCC(=O)N[C@@H](CCN)C(=O)N[C@@H](CCN)C(=O)O` [SEQ ID NO: 16, CH3(CH2)14(C═O)-E-Aeea-Aeea-Dab-Dab] (Palmitoyl-E[AEEA][AEEA][Dab][Dab]-OH; C-terminus assumed), the “Ataxia** in n = 3” value (Sprague Dawley rats) was >10 µmol/kg, the “Swelling and/or Discoloration in n = 3” value (Sprague Dawley rats) was >10 µmol/kg and the MTD [1] was > 10 µmol/kg.

With `CC[C@H](C)[C@@H]1NC(=O)[C@H](CCCNC(=N)N)NC(=O)[C@H](CC(=O)O)NC(=O)[C@H](CC(C)C)NC(=O)[C@H](CCCCN)NC(=O)[C@H](CC(C)C)NC(=O)CNC(=O)[C@H](Cc2ccccc2)NC(=O)[C@@H](NC(=O)CNC(=O)[C@H](CCCCN)NC(=O)[C@H](CO)NC(=O)[C@H](CC(C)C)NC(=O)CN)CSSC[C@@H](C(=O)O)NC(=O)CNC(=O)[C@H](CC(C)C)NC(=O)CNC(=O)[C@H](CO)NC(=O)[C@H](CCSC)NC(=O)[C@H](CO)NC(=O)CNC1=O` [SEQ ID NO: 32, reference compound] the “Plasma concentration of cGMP, 2 hr” value (cGMP) was 8.7 pmol/mL, the “Plasma concentration of cGMP, 6 hr” value (cGMP) was 9.5 pmol/mL and the level at 2 h [2, 3] was 2.17 ng/mL. For the same molecule, the level at 6 h [2, 4] was 2.91 ng/mL.

For `CC[C@H](C)[C@@H]1NC(=O)[C@H](CCCNC(=N)N)NC(=O)[C@H](CC(=O)O)NC(=O)[C@H](CC(C)C)NC(=O)[C@H](CCCCN)NC(=O)[C@H](CC(C)C)NC(=O)CNC(=O)[C@H](Cc2ccccc2)NC(=O)[C@@H](NC(=O)CNC(=O)[C@H](CCCCN)NC(=O)[C@H](CO)NC(=O)[C@H](CC(C)C)NC(=O)CNC(=O)[C@H](CCN)NC(=O)[C@H](CCN)NC(=O)COCCOCCNC(=O)COCCOCCNC(=O)CCCCCCCCCCCCCCCCC(=O)O)CSSC[C@@H](C(=O)O)NC(=O)CNC(=O)[C@H](CC(C)C)NC(=O)CNC(=O)[C@H](CO)NC(=O)[C@H](CCC(N)=O)NC(=O)[C@H](CO)NC(=O)CNC1=O` [SEQ ID NO: 34] ({C18 diacid-AEEA-AEEA}-[Dab][Dab]GLSKGCFGLKLDRIGSQSGLGC-OH; disulfide 8-24; C-terminus assumed), the “Plasma concentration of cGMP, 2 hr” value (cGMP) was 15.78* pmol/mL, the “Plasma concentration of cGMP, 6 hr” value (cGMP) was 33.6 pmol/mL and the level at 2 h ([2]; sc, 1 mg/kg) was 75.5 ng/mL. It also gave a level at 6 h ([2]; sc, 1 mg/kg) of 41 ng/mL.

In the case of `CCCCCCCCCCCCCCCC(=O)NCCOCCOCC(=O)NCCOCCOCC(=O)NCCOCCOCC(=O)N[C@@H](CN)C(=O)N[C@@H](CN)C(=O)N[C@@H](CN)C(=O)NCC(=O)N[C@@H](CC(C)C)C(=O)N[C@@H](CO)C(=O)N[C@@H](CCCCN)C(=O)NCC(=O)N[C@H]1CSSC[C@@H](C(=O)O)NC(=O)CNC(=O)[C@H](CC(C)C)NC(=O)CNC(=O)[C@H](CO)NC(=O)[C@H](CCC(N)=O)NC(=O)[C@H](CO)NC(=O)CNC(=O)[C@H]([C@@H](C)CC)NC(=O)[C@H](CCCNC(=N)N)NC(=O)[C@H](CC(=O)O)NC(=O)[C@H](CC(C)C)NC(=O)[C@H](CCCCN)NC(=O)[C@H](CC(C)C)NC(=O)CNC(=O)[C@H](Cc2ccccc2)NC1=O` [SEQ ID NO: 43] ({Palmitoyl-AEEA-AEEA-AEEA}-[Dap][Dap][Dap]GLSKGCFGLKLDRIGSQSGLGC-OH; disulfide 9-25; C-terminus assumed), the “Plasma concentration of cGMP, 2 hr” value (cGMP) is reported as 114.85**** pmol/mL, the “Plasma concentration of cGMP, 6 hr” value (cGMP) is reported as 93.39**** pmol/mL and the level at 2 h ([2]; sc, 1 mg/kg) is reported as 29.2 ng/mL. It also gave a level at 6 h ([2]; sc, 1 mg/kg) of 16.8 ng/mL.

In the case of `CCCCCCCCCCCCCCCC(=O)NCCOCCOCC(=O)NCCOCCOCC(=O)N[C@@H](CN)C(=O)N[C@@H](CCN)C(=O)NCC(=O)N[C@@H](CC(C)C)C(=O)N[C@@H](CO)C(=O)N[C@@H](CCCCN)C(=O)NCC(=O)N[C@H]1CSSC[C@@H](C(=O)O)NC(=O)CNC(=O)[C@H](CC(C)C)NC(=O)CNC(=O)[C@H](CO)NC(=O)[C@H](CCC(N)=O)NC(=O)[C@H](CO)NC(=O)CNC(=O)[C@H]([C@@H](C)CC)NC(=O)[C@H](CCCNC(=N)N)NC(=O)[C@H](CC(=O)O)NC(=O)[C@H](CC(C)C)NC(=O)[C@H](CCCCN)NC(=O)[C@H](CC(C)C)NC(=O)CNC(=O)[C@H](Cc2ccccc2)NC1=O` [SEQ ID NO: 35] ({Palmitoyl-AEEA-AEEA}-[Dap][Dab]GLSKGCFGLKLDRIGSQSGLGC-OH; disulfide 8-24; C-terminus assumed), the “Plasma concentration of cGMP, 2 hr” value (cGMP) is reported as 65.28**** pmol/mL, the “Plasma concentration of cGMP, 6 hr” value (cGMP) is reported as 35.10** pmol/mL and the level at 2 h ([2]; sc, 1 mg/kg) is reported as 12.9 ng/mL. The level at 6 h ([2]; sc, 1 mg/kg) was 4.13 ng/mL.

For `CC[C@H](C)[C@@H]1NC(=O)[C@H](CCCNC(=N)N)NC(=O)[C@H](CC(=O)O)NC(=O)[C@H](CCSC)NC(=O)[C@H](CCCCN)NC(=O)[C@H](CCCNC(=N)N)NC(=O)CNC(=O)[C@H](Cc2ccccc2)NC(=O)[C@@H](NC(=O)CNC(=O)[C@H](CO)NC(=O)CNC(=O)[C@H](CCC(N)=O)NC(=O)[C@@H](NC(=O)[C@H](CCSC)NC(=O)[C@H](CCCCN)NC(=O)[C@@H]2CCCN2C(=O)[C@@H](N)CO)C(C)C)CSSC[C@@H](C(=O)N[C@@H](CCCCN)C(=O)N[C@H](C(=O)N[C@@H](CC(C)C)C(=O)N[C@@H](CCCNC(=N)N)C(=O)N[C@@H](CCCNC(=N)N)C(=O)N[C@@H](Cc2c[nH]cn2)C(=O)O)C(C)C)NC(=O)CNC(=O)[C@H](CC(C)C)NC(=O)CNC(=O)[C@H](CO)NC(=O)[C@H](CO)NC(=O)[C@H](CO)NC(=O)[C@H](CO)NC1=O` [SEQ ID NO: 48, reference compound], the “Plasma concentration of cGMP, 2 hr” value (cGMP) was 10.57 pmol/mL, the “Plasma concentration of cGMP, 6 hr” value (cGMP) was 8.48 pmol/mL and the level at 2 h [2, 3] was 23.3 ng/mL. It also gave a level at 6 h [2, 4] of 30.6 ng/mL.
